In PMC11684029, “Discovery of VU6024578/BI02982816: An mGlu1 Positive Allosteric Modulator with Efficacy in Preclinical Antipsychotic and Cognition Models” (Journal of Medicinal Chemistry, 2024):
≈ marks a conversion by molar mass, not a printed value. Read-outs that look alike come from different tables or passages of the source.

Key:
[1] = plasma protein binding; type: in vitro ADME
Description: (§1) The protein binding of each compound was determined in plasma via equilibrium dialysis employing RED Plates (ThermoFisher Scientific, Rochester, NY). Plasma was added to the 96 well plate containing test compound and mixed thoroughly for a final concentration of 5 μM. Subsequently, an aliquot of the plasma-compound mixture was transferred to the cis chamber (red) of the RED plate, with an phosphate buffer (25 mM, pH 7.4) in the trans chamber. The RED plate was sealed and incubated for 4 h at 37 °C with shaking. At completion, aliquots from each chamber were diluted 1:1 with either plasma (cis) or buffer (trans) and transferred to a new 96 well plate, at which time ice-cold acetonitrile containing internal standard (50 ng/mL carbamazepine) (2 volumes) was added to extract the matrices. The plate was centrifuged (3000 rcf, 10 min) and supernatants transferred and diluted 1:1 (supernatant: water) into a new 96 well plate, which was then sealed in preparation for LC/MS/MS analysis. Each compound was assayed in triplicate within the same 96-well plate. Fraction unbound was determined using the following equation [drawing 1]

[2] = system: Adrenergic alpha 1 (non-selective); assay: Eurofins radioligand binding panel; design: species or system rat; settings: antagonist radioligand
Text: (§2) Table S1. Eurofins Lead Profiling Screen Data
(§3) This is a radioligand binding panel of 80 targets including GPCRs, ion channels, transporters and nuclear hormones. Biochemical assay results are presented as the percent inhibition of specific […]
(§4) Results showing an inhibition or stimulation higher than 50% are considered to represent significant effect and are highlighted […]
(§5) Target / Protein Species % Inhibition at 10 […]

[3] = system: Adrenergic alpha 2 (non-selective); assay: Eurofins radioligand binding panel; design: species or system rat; settings: antagonist radioligand
Text: as §2, §3, §4, §5

[4] = system: BB (non-selective); assay: Eurofins radioligand binding panel; design: species or system rat; settings: agonist radioligand
Text: as §2, §3, §4, §5

[5] = target: T1, CCK2 (CCKB) (Homo sapiens, UniProt P32239); assay: Eurofins radioligand binding panel; settings: agonist radioligand
T1 construct: Eurofins (panel run as a service)
Text: as §2, §3, §4, §5
CCK2 (CCKB) (agonist radioligand) human -4

[6] = solubility (kinetic, FaSSIF, FaSSGF); type: physicochemical
Description: Over the course of the mGlu1 PAM program, 19d became an assay standard and was assayed multiple times, affording refined potency values.[20]

[7] = satellite PK for NOR; type: in vivo; settings: brain, rat, 210 min postdose
Text: Based on our previous work with the mGlu1 PAM 4,[6]−[9],[14]−[19] we first evaluated the ability of 19d to reverse MK-801 disruptions of novel object recognition (NOR) in rats (Figure 6).

[8] = brain homogenate binding; type: in vitro ADME, mouse; settings: fraction unbound
[9] = PK in parallel to rat locomotor battery; type: in vivo
Description: In order to enable our target validation work, we first profiled PAM 19d in a rat locomotor battery to ensure that pharmacodynamic efficacy was not mistaken for gross effects on locomotion.[20] […] PK was performed in parallel to establish a PK/PD relationship.[24]
Figure S2. 19d assessed in rat locomotor battery A: Exposure of 19d in the locomotor battery experiment. […]

[10] = plasma protein binding, equilibrium dialysis; type: in vitro ADME, human; settings: fraction unbound
Description: as §1

[11] = plasma protein binding, equilibrium dialysis; type: in vitro ADME, rat; settings: fraction unbound
Description: as §1

[12] = target: T2, P-gp (MDR1) (Homo sapiens, UniProt P08183); assay: MDCK-MDR1 permeability/efflux; type: in vitro ADME; settings: human
T2 construct: expressed in transfected cells; host or cells: MDCK-MDR1

[13] = target: T3, human P-gp (Homo sapiens, UniProt P08183); assay: MDCK-MDR1 permeability/efflux; type: in vitro ADME
T3 construct: expressed in transfected cells; host or cells: MDCK-MDR1

[14] = system: male beagles; assay: adverse events in dog PK; type: in vivo; settings: 0.5 mg/kg IV
Description: Deeper profiling began with IV dog PK (0.5 mg/kg, n = 3 male beagles). […] Was this a mechanism-based toxicity in dog? Could there be dog-specific pharmacology of mGlu1 activation? Were these AEs derived from the 19d chemotype? Could a mGlu1/mGlu5 heterodimer be responsible for the observed AEs? […] In an attempt to address the chemotype question, we evaluated PAM 4 (VU6004909),[8] an early generation rodent in vivo tool compound, for the first time in dog PK. […] of the study with 19d, PAM 4 produced no AEs in dog. […] Therefore, more molecular pharmacology and PK studies as well as additional chemically distinct mGlu1 PAM chemotypes are required to understand the AEs elicited by an mGlu1 PAM in dogs, an otherwise very promising target for the treatment of schizophrenia.

[15] = metabolite identification; type: in vitro ADME; settings: ± NADPH; for metabolites of the furanyl ring: 60 min; for parent in 60 min samples: UV peak areas
Description: Across species, 19d had acceptable fraction unbound in both plasma (fu (plasma): 0.03 (human), 0.041 (rat), 0.025 (cyno), 0.039 (dog) and 0.056 (mouse)) and brain (fu (brain): 0.034 (rat) and 0.081 (mouse)).
Figure 5 Metabolite identification of VU6024578 (19d) in rat and human liver microsomes. […] Thus, we incubated 19d in rat and human liver microsomes (with and without NADPH) for 60 min and monitored by both extracted ion and UV detection for the production of metabolites and consumption of parent.

[16] = target: T4, Adenosine A1 (Homo sapiens, UniProt P30542); assay: Eurofins radioligand binding panel; settings: antagonist radioligand
T4 construct: Eurofins
Text: as §2, §3, §4
Target / Protein Species % Inhibition at 10

T4 sequence (P30542 whole entry): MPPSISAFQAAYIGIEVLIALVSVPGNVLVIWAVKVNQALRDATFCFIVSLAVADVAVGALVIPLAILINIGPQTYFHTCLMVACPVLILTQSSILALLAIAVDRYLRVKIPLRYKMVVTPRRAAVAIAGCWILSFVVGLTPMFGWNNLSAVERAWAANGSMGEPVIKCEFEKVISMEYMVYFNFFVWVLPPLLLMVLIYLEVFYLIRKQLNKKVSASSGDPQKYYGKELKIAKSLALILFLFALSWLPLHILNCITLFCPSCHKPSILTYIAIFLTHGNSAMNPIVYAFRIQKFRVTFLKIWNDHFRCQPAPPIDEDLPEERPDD
T2 sequence (P08183 whole entry): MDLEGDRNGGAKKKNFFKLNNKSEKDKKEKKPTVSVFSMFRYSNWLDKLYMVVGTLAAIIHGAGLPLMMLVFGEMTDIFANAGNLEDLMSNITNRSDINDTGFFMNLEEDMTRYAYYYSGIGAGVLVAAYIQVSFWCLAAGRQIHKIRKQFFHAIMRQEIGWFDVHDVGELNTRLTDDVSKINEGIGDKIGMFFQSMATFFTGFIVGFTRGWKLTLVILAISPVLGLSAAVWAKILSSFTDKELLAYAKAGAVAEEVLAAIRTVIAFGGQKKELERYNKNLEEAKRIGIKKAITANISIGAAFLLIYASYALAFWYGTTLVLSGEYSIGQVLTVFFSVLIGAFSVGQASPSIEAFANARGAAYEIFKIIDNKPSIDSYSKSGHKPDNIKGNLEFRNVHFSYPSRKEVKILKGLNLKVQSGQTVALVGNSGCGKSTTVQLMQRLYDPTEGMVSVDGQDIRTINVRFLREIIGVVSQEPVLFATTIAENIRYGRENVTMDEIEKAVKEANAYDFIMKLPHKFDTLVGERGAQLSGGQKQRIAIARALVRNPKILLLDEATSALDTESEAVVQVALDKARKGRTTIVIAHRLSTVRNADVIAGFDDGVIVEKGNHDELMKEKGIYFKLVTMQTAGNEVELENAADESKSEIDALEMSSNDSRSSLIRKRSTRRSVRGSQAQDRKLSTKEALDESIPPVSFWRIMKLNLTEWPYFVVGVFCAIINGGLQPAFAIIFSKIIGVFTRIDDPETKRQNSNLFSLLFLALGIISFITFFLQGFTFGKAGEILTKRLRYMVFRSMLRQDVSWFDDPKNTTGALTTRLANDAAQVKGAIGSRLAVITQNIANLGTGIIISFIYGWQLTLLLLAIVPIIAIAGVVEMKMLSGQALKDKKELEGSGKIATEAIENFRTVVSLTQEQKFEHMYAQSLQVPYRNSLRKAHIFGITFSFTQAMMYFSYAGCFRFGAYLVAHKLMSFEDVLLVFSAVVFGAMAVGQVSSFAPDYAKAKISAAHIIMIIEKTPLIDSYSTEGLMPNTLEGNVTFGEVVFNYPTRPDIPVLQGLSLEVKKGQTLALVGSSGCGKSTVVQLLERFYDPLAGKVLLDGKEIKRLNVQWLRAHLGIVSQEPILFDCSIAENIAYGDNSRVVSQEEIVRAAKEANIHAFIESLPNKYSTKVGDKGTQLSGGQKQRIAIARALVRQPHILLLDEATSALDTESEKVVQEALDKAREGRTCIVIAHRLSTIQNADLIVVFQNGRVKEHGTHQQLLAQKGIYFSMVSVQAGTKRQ
T3 sequence (P08183 whole entry): as above
T1 sequence (P32239 whole entry): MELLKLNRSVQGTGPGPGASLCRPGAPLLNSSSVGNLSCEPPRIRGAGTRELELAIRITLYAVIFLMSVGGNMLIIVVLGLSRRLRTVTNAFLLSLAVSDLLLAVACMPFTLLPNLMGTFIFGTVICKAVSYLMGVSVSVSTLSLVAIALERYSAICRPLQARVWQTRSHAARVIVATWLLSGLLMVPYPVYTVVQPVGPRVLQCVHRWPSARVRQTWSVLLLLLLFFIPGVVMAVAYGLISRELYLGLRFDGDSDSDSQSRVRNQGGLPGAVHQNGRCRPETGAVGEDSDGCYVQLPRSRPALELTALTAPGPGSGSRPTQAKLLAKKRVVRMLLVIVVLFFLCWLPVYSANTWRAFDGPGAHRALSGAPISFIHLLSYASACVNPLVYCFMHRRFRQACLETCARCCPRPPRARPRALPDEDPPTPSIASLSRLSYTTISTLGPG

Which fraction unbound at 4 h, 5 μM ([1]; cynomolgus monkey, pH 7.4, read-out: fu (plasma), cyno) does the source give for `Cn1nc(-c2ccnn2C)cc1CNC(=O)c1cc(-c2ccco2)ccc1Cl` [Compound 19d, 2-Chloro-N-((1,2′-dimethyl-1H,2’H-[3,3′-bipyrazol]-5-yl)methyl)-5-(furan-2-yl)benzamide] here?
The fraction unbound at 4 h, 5 μM was 0.025.

What about the fraction unbound at 4 h, 5 μM ([1]; dog, pH 7.4, read-out: fu (plasma), dog) of the same molecule?
The fraction unbound at 4 h, 5 μM was 0.039.

What about the fraction unbound at 4 h, 5 μM ([1]; mouse, pH 7.4, read-out: fu (plasma), mouse) of the same molecule?
Its fraction unbound at 4 h, 5 μM is 0.056.

What about the “% Inhibition at 10 µM” value [2] of the same molecule?
Its value is 19%.

And the “% Inhibition at 10 µM” value [3]?
Its value is 1%.

And the “% Inhibition at 10 µM” value [4]?
Its value is -20%.

What about the inhibition at 10 µM [5] of the same molecule?
Its inhibition at 10 µM is -4%.

And the solubility ([6]; FaSSGF, fassgf or other biorelevant, read-out: FaSSGF solubility)?
Its solubility is 2.5 µM (≈ 0.99 µg/mL).

And the solubility ([6]; FaSSIF, read-out: FaSSIF solubility)?
Its solubility is 2.5 µM (≈ 0.99 µg/mL).

And the solubility kinetic ([6]; pH 7.4, aqueous buffer, kinetic from dmso stock)?
Its solubility kinetic is 4.1 µM (≈ 1.62 µg/mL).

And the concentration at 210 min ([7]; 10 mg/kg PO, read-out: free brain concentration)?
The concentration at 210 min was 73 nM.

What about the Kp at 3.5 h ([7]; PO) of the same molecule?
Its Kp at 3.5 h is 0.34.

And the “fu (brain), mouse” value [8]?
The value was 0.081.

What about the Kp ([9]; brain, rat locomotor battery PK) of the same molecule?
Its Kp is ~0.75.

And the free brain concentration ([9]; rat, 10 mg/kg)?
Its free brain concentration is 134 nM.

What about the “free brain concentration over in vitro EC50” value ([9]; rat, 10 mg/kg) of the same molecule?
Its value is ~2.9 fold.

What about the human fuplasma [10] of the same molecule?
Its human fuplasma is 0.03.

And the rat fuplasma [11]?
The rat fuplasma was 0.041.

What about the Papp [12] of the same molecule?
Its Papp is 73 ×10⁻⁶ cm/s.

And the “human P-gp substrate, in words” value [13]?
The value was “not a human P-gp substrate”.

And the “adverse events (AEs) in dog” value ([14]; 0.5 mg/kg)?
The value was “GI-salivation and rigidity”.

What about the “time of AEs postdose” value ([14]; at Cmax) of the same molecule?
Its value is 1 to 3 min.

What about the “adverse events (AEs) in dog” value ([14]; listed as VU6024578/BI02982816, 0.5 mg/kg) of the same molecule?
The value was “unanticipated AEs”.

What about the “metabolites of the furanyl ring” value ([15]; human liver microsomes) of the same molecule?
The value was “no metabolites corresponding to oxidation or opening of the furanyl ring were detected”.

And the “parent in 60 min samples” value ([15]; human liver microsomes)?
The value was “major component observed”.

And the “metabolites of the furanyl ring” value ([15]; rat liver microsomes)?
The value was “no metabolites corresponding to oxidation or opening of the furanyl ring were detected”.

And the “parent in 60 min samples” value ([15]; rat liver microsomes)?
The value was “major component observed”.

What about the inhibition at 10 µM [16] of the same molecule?
The inhibition at 10 µM was 8%.
